# The RepoRT retention time repository (doi:10.1016/j.jchromb.2020.122105)
# Tests used:
# Conditions in all cases: stereoisomer not certain
# [1] = RP, Waters ACQUITY UPLC BEH C18, 100 × 2.1 mm, 1.7 µm, 0.1 mL/min, estimated dead time 2.2 min; A: water + 0.1% formic acid, pH 3; B: methanol + 0.1% formic acid, pH 3; gradient (min/%B) 0/5 5/5 25/100 30/100 30.1/5 35/5
# [2] = RP, Waters CORTECS T3, 100 × 2.1 mm, 2.7 µm, 0.3 mL/min, estimated dead time 0.73 min; A: water + 0.1% formic acid, pH 3; B: methanol + 0.1% formic acid, pH 3; gradient (min/%B) 0/5 5/5 25/100 30/100 30.1/5 35/5
# [3] = RP, Waters ACQUITY UPLC BEH C18, 100 × 2.1 mm, 1.7 µm, 0.1 mL/min, estimated dead time 2.2 min; A: water + 0.1% formic acid, pH 3; B: methanol + 0.1% formic acid, pH 3; gradient (min/%B) 0/5 5/5 25/95 25.1/100 35/100 35.1/5 45/5
# [4] = RP, Waters ACQUITY UPLC BEH C18, 100 × 2.1 mm, 1.7 µm, 0.2 mL/min, estimated dead time 1.1 min; A: water + 0.025% formic acid + 20 mM ammonium acetate + 0.055% ammonium hydroxide, pH 7; B: methanol; gradient (min/%B) 0/5 5/5 25/100 30/100 30.1/5 35/5
# [5] = RP, Waters CORTECS T3, 100 × 2.1 mm, 2.7 µm, 0.3 mL/min, estimated dead time 0.73 min; A: water + 0.1% formic acid, pH 3; B: methanol + 0.1% formic acid, pH 3; gradient (min/%B) 0/5 5/5 25/95 25.1/100 35/100 35.1/5 45/5
# [6] = HILIC, Merck SeQuant ZIC-HILIC, 150 × 2.1 mm, 5 µm, 0.75 mL/min, estimated dead time 0.44 min; A: water + 0.1% acetic acid + 10 mM ammonium acetate, pH 4; B: 5% water + 95% acetonitrile + 0.1% acetic acid + 10 mM ammonium acetate, pH 4; gradient (min/%B) 0/95 5/95 20/57 25/57 30/95 40/95
# [7] = RP, Waters CORTECS T3, 100 × 2.1 mm, 2.7 µm, 0.2 mL/min, estimated dead time 1.1 min; A: water + 0.1% formic acid, pH 3; B: methanol + 0.1% formic acid, pH 3; gradient (min/%B) 0/0 1/0 6/5 30/100 35/100 35.1/0 40/0
# [8] = RP, Waters CORTECS T3, 100 × 2.1 mm, 2.7 µm, 0.25 mL/min, estimated dead time 0.88 min; A: water + 0.1% formic acid, pH 3; B: methanol + 0.1% formic acid, pH 3; gradient (min/%B) 0/5 5/5 25/95 25.1/100 35/100 35.1/5 45/5
# [9] = RP, Waters CORTECS T3, 100 × 2.1 mm, 2.7 µm, 0.3 mL/min, estimated dead time 0.73 min; A: water + 0.1% formic acid, pH 3; B: methanol + 0.1% formic acid, pH 3; gradient (min/%B) 0/0 5/0 25/100 30/100 30.1/0 35/0
# [10] = RP, Waters ACQUITY UPLC BEH C18, 100 × 2.1 mm, 1.7 µm, 0.2 mL/min, estimated dead time 1.1 min; A: water + 0.1% formic acid, pH 3; B: methanol + 0.1% formic acid, pH 3; gradient (min/%B) 0/5 5/5 25/100 30/100 30.1/5 35/5
# [11] = RP, Waters ACQUITY UPLC BEH C18, 100 × 2.1 mm, 1.7 µm, 0.1 mL/min, estimated dead time 2.2 min; A: water + 0.1% formic acid, pH 3; B: methanol + 0.1% formic acid, pH 3; gradient (min/%B) 0/5 5/5 25/95 25.1/100 35/100 35.1/5 45/5; remark: listed apart in the source
# [12] = RP, Waters CORTECS T3, 100 × 2.1 mm, 2.7 µm, 0.2 mL/min, estimated dead time 1.1 min; A: water + 0.1% formic acid, pH 3; B: methanol + 0.1% formic acid, pH 3; gradient (min/%B) 0/5 5/5 25/95 25.1/100 35/100 35.1/5 45/5
# [13] = RP, Waters CORTECS T3, 100 × 2.1 mm, 2.7 µm, 0.3 mL/min, estimated dead time 0.73 min; A: water + 0.1% formic acid, pH 3; B: methanol + 0.1% formic acid, pH 3; gradient (min/%B) 0/0 1/0 6/5 30/100 35/100 35.1/0 40/0
# [14] = HILIC, Waters XBridge BEH Amide, 100 × 2.1 mm, 2.5 µm, 0.5 mL/min, estimated dead time 0.44 min; A: water + 0.1% acetic acid + 10 mM ammonium acetate, pH 4; B: 5% water + 95% acetonitrile + 0.1% acetic acid + 10 mM ammonium acetate, pH 4; gradient (min/%B) 0/95 5/95 20/57 25/57 30/95 40/95
# [15] = RP, Waters CORTECS T3, 100 × 2.1 mm, 2.7 µm, 0.3 mL/min, estimated dead time 0.73 min; A: water + 0.1% formic acid, pH 3; B: methanol + 0.1% formic acid, pH 3; gradient (min/%B) 0/0 5/0 25/100 30/100 30.1/0 35/0; remark: listed apart in the source
# [16] = RP, Waters CORTECS T3, 100 × 2.1 mm, 2.7 µm, 0.2 mL/min, estimated dead time 1.1 min; A: water + 0.1% formic acid, pH 3; B: methanol + 0.1% formic acid, pH 3; gradient (min/%B) 0/0 1/0 6/5 30/100 35/100 35.1/0 40/0; remark: listed apart in the source
# [17] = RP, Waters CORTECS T3, 100 × 2.1 mm, 2.7 µm, 0.15 mL/min, estimated dead time 1.5 min; A: water + 0.1% formic acid, pH 3; B: methanol + 0.1% formic acid, pH 3; gradient (min/%B) 0/5 5/5 25/95 25.1/100 35/100 35.1/5 45/5
# [18] = RP, Thermo Scientific Hypercarb, 150 × 2.1 mm, 5 µm, 0.1 mL/min, estimated dead time 3.3 min; A: water + 0.1% formic acid, pH 3; B: methanol + 0.1% formic acid, pH 3; gradient (min/%B) 0/5 5/5 20/100 35/100 35.1/5 45/5
# [19] = RP, Waters CORTECS T3, 100 × 2.1 mm, 2.7 µm, 0.3 mL/min, estimated dead time 0.73 min; A: water + 0.1% formic acid, pH 3; B: methanol + 0.1% formic acid, pH 3; gradient (min/%B) 0/0 1/0 6/5 30/100 35/100 35.1/0 40/0; remark: listed apart in the source
# [20] = RP, Waters CORTECS T3, 100 × 2.1 mm, 2.7 µm, 0.15 mL/min, estimated dead time 1.5 min; A: water + 0.1% formic acid, pH 3; B: methanol + 0.1% formic acid, pH 3; gradient (min/%B) 0/0 1/0 6/5 30/100 35/100 35.1/0 40/0
# [21] = RP, Waters CORTECS T3, 100 × 2.1 mm, 2.7 µm, 0.25 mL/min, estimated dead time 0.88 min; A: water + 0.1% formic acid, pH 3; B: methanol + 0.1% formic acid, pH 3; gradient (min/%B) 0/0 1/0 6/5 30/100 35/100 35.1/0 40/0
# [22] = RP, Waters CORTECS T3, 100 × 2.1 mm, 2.7 µm, 0.1 mL/min, estimated dead time 2.2 min; A: water + 0.1% formic acid, pH 3; B: methanol + 0.1% formic acid, pH 3; gradient (min/%B) 0/5 5/5 25/95 25.1/100 35/100 35.1/5 45/5
# [23] = RP, Waters ACQUITY UPLC BEH C18, 100 × 2.1 mm, 1.7 µm, 0.1 mL/min, estimated dead time 2.2 min; A: water + 0.045% formic acid + 0.11% ammonium hydroxide, pH 7; B: methanol; gradient (min/%B) 0/5 5/5 25/95 25.1/100 35/100 35.1/5 45/5
# [24] = RP, Waters CORTECS T3, 100 × 2.1 mm, 2.7 µm, 0.1 mL/min, estimated dead time 2.2 min; A: water + 0.1% formic acid, pH 3; B: methanol + 0.1% formic acid, pH 3; gradient (min/%B) 0/0 1/0 6/5 30/100 35/100 35.1/0 40/0
# [25] = RP, Waters ACQUITY UPLC BEH C18, 100 × 2.1 mm, 1.7 µm, 0.2 mL/min, estimated dead time 1.1 min; A: water + 0.025% formic acid + 20 mM ammonium acetate + 0.055% ammonium hydroxide, pH 7; B: methanol; gradient (min/%B) 0/5 5/5 25/100 30/100 30.1/5 35/5; remark: listed apart in the source
# [26] = RP, Waters CORTECS T3, 100 × 2.1 mm, 2.7 µm, 0.2 mL/min, estimated dead time 1.1 min; A: water + 0.045% formic acid + 0.11% ammonium hydroxide, pH 7; B: methanol; gradient (min/%B) 0/5 5/5 25/95 25.1/100 35/100 35.1/5 45/5
LC retention time [1] [min],LC retention time [2] [min],LC retention time [4] [min],LC retention time [5] [min],LC retention time [6] [min],LC retention time [9] [min],LC retention time [11] [min],LC retention time [14] [min],LC retention time [16] [min],LC retention time [19] [min],LC retention time [20] [min],LC retention time [21] [min],LC retention time [22] [min],LC retention time [23] [min],LC retention time [24] [min],further results,SMILES
2.74,0.93,1.36,0.9,13.8,0.93,2.66,14.5,1.38,0.92,1.87,1.13,,,,LC retention time [3]: 2.7 min; LC retention time [7]: 1.38 min; LC retention time [8]: 1.08 min; LC retention time [10]: 1.42 min; LC retention time [12]: 2.74 min; LC retention time [13]: 0.96 min; LC retention time [15]: 0.93 min; LC retention time [17]: 1.78 min; LC retention time [18]: 18.5 min,CCC(NC(=O)CCC(N)C(=O)O)C(=O)NCC(=O)O (stereo not given) [OPHTHALMIC ACID]
18.2,12.9,,13.1,,13.8,18.6,,16.4,14.8,17.9,15.5,18.2,11.3,14.7,,O=C([O-])Cc1c[nH]c2ccccc12 [INDOLE-3-ACETATE]
15.4,9.85,11.9,9.92,0.95,11.1,15.6,0.91,13,11.4,14.5,12.1,15.2,15.6,11.6,LC retention time [25]: 11.9 min; LC retention time [26]: 11.7 min,NC(=O)Cc1c[nH]c2ccccc12 [INDOLE-3-ACETAMIDE]
